For this assay, the system named is HT-29 human colon adenocarcinoma cells. Description: Tumor cell growth inhibition assay (Cell Titer Glo, cell viability), HT-29. The assay is classed as cell-based. Conditions: HT-29 cells, 72 hours treatment. The method, then: The human colon adenocarcinoma cell lines were obtained from ATCC and grown under standard cell culture conditions in RPMI 1640 medium containing 5% fetal bovine serum (FBS) at 37°C in a humidified atmosphere with 5% CO2.
Tissue culture treated 96-well microtiter plates were seeded at a density of 5,000 cells/well. For growth inhibition assays, cells were incubated at 37°C for 18-24 hours, treated with the specified compound or vehicle (0.1% DMSO final) control, and incubated at 37°C an additional 72 hours. The effect of treatment on cell viability was determined using the luminescent Cell Titer Glo Assay (Promega).
HT-29 human colon adenocarcinoma cells were treated with compounds of the invention and grown under standard cell culture conditions. […]

The structures appear in SMILES notation. pIC50: −log10 of the molar value.

This is an account of results in patent EP2623098B1, “Amide Amino Acid Esters of Nonsteroidal Anti-Inflammatory Drugs (NSAIDs) as Potent Inhibitors of Tumor Cell Growth” (King Saud University, priority 2012, dated 2013).

As a reminder, the pIC50 is the negative decadic logarithm of the IC50, by convention in mol/L. `COC(=O)CC(NC(=O)C(C)c1ccc2cc(OC)ccc2c1)C(=O)OC` (centres unmarked) [IX] gave a pIC50 of 3.92.
The value for `CCOC(=O)CCNC(=O)C(C)c1ccc2cc(OC)ccc2c1` (centres unmarked) [IV] was 3.91; that for `CCOC(=O)C(CCSC)NC(=O)C(C)c1ccc2cc(OC)ccc2c1` (centres unmarked) [XII] was 4.31.
Molecule `CCOC(=O)C(NC(=O)C(C)c1ccc2cc(OC)ccc2c1)C(C)C` (centres unmarked) [XI] had a pIC50 of 4.53.
The value for `COC(=O)C(CC(C)C)NC(=O)C(C)c1ccc2cc(OC)ccc2c1` (centres unmarked) [VII] was 4.46.
